{"source": "paper PMC3667675", "about": "(ChemMedChem, 2011)", "key": {"KOR [1]": {"tested_on": "KOR", "assay": "Radioligand binding assay, cloned KOR in CHO cell membranes, [3H]diprenorphine", "conditions": "read-out: Ki (nM ± SEM) KOR, mean ± SEM"}, "MOR [2]": {"biological_target": "MOR", "type": "binding", "conditions": "read-out: Ki (nM ± SEM) MOR; CHO membranes, [3H]DAMGO, mean ± SEM"}, "DOR": {"tested_on": "DOR", "assay": "Radioligand binding assay, cloned DOR in CHO cell membranes, [3H]DPDPE", "conditions": "read-out: Ki (nM ± SEM) DOR, mean ± SEM"}, "KOR [3]": {"tested_on": "KOR", "assay": "Ligand-stimulated [35S]GTPγS binding assay, KOR expressing CHO cell membranes", "type": "biochemical", "conditions": "ratio of KB values"}, "MOR [4]": {"biological_target": "MOR (Rattus norvegicus, UniProt P33535)", "sequence (P33535 whole entry)": "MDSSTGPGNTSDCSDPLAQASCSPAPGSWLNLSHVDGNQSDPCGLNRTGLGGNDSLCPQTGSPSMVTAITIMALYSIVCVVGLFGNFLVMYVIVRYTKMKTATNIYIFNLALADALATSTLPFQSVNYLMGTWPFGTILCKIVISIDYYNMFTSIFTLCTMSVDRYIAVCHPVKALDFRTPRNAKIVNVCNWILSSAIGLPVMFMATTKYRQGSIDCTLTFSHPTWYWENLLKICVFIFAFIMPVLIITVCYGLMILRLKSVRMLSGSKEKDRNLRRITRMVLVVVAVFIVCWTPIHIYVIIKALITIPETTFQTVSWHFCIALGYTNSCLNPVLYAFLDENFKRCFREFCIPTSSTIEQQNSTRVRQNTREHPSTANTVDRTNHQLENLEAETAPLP", "assay": "biochemical"}, "C57Bl/6J mice": {"tested_on": "C57Bl/6J mice", "type": "in vivo"}, "opioid receptors": {"tested_on": "opioid receptors", "type": "in vivo, C57Bl/6J mice"}, "KOR [5]": {"biological_target": "KOR (Mus musculus, UniProt P33534)", "sequence (P33534 whole entry)": "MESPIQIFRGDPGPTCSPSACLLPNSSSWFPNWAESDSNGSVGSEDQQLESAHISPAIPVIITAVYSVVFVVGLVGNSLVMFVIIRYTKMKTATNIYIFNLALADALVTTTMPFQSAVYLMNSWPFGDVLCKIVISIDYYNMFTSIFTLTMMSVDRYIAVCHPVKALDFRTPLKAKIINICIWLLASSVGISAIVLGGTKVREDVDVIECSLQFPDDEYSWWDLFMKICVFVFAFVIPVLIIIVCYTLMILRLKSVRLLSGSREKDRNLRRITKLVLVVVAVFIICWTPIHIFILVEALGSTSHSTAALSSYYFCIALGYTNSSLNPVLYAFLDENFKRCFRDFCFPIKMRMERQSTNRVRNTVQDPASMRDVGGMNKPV", "type": "in vivo, C57Bl/6J mice", "conditions": "U50,488 10 mg/kg i.p.; 3 h pretreatment"}}, "note": "Square brackets hold non-standard residues; d marks the D form. Peptide text beside a SMILES is read from it.", "data": [{"smiles": "C[C@@H]1NC(=O)[C@H](Cc2c[nH]c3ccccc23)NC(=O)[C@H](Cc2ccccc2)NC(=O)[C@H]2CCCN2C1=O", "note": "[Peptide 2, cyclo[Ala-DPro-Phe-Trp]] (cyclo(A[dP]FW))", "values": [{"measurement": "Ki", "setting": "KOR [1]", "result": "8.03 ± 1.67", "unit": "nM"}, {"measurement": "Ki", "setting": "MOR [2]", "result": "32.1 ± 3.9", "unit": "nM"}, {"measurement": "Ki", "setting": "DOR", "result": "8680 ± 1270", "unit": "nM"}, {"measurement": "KOR antagonist potency relative to parent peptide 1 (more potent)", "setting": "KOR [3]", "result": 25, "unit": "fold"}, {"measurement": "Kb", "setting": "MOR [4]", "result": "7.3 ± 1.6", "unit": "nM"}, {"measurement": "Time of peak antinociceptive response", "setting": "C57Bl/6J mice; after i.c.v. administration", "result": 30, "unit": "min"}, {"measurement": "ED50 (and 95% confidence interval), antinociception", "setting": "C57Bl/6J mice; i.c.v., at peak response, C57Bl/6J mice", "result": "1.49 (0.39-7.41) nmol"}, {"measurement": "Effect of naloxone pretreatment on peptide antinociception", "setting": "opioid receptors; naloxone 15 nmol i.c.v., 25 min prior, peptides 2 (3 nmol), 3 (10 nmol), 4 (0.3 nmol), 5 (30 nmol) i.c.v.", "result": "significantly antagonized"}, {"measurement": "Reduction of antinociceptive activity by nor-BNI pretreatment", "setting": "opioid receptors; nor-BNI 10 mg/kg i.p., did not reach statistical significance", "result": "> 30", "unit": "%"}, {"measurement": "KOR antagonist potency in vivo compared with parent peptide 1", "setting": "KOR [5]", "result": "somewhat more potent"}]}]}
